The subject of experiment [1] is IL-1β p17 in the cerebral spinal fluid. Nature of the experiment: Test on IL-1β production in rat central nerve (LPS/BzATP intracisternal, CSF Western blot). The settings on record: oral. (In general: A western blot detects proteins with antibodies after separation by electrophoresis.)
Method: After 2 hours, the test compound was orally administered. After 1 hour, 50 μg/5 μL of BzATP (2′(3′)-O-(4-Benzoylbenzoyl)adenosine 5′-triphosphate triethylammonium salt, SIGMA, B6396) was intracisternally administered, and after 30 minutes, a cerebral spinal fluid was collected. The amount of IL-1β p17 in the cerebral spinal fluid was determined by a Western blotting method using an anti-IL-1β antibody (Millipore, AB1832P), and the inhibition ratio to the solvent administration group was calculated.
Experiment [2] deals with IL-1β Production of THP-1. As to the kind of experiment: Test on IL-1β production of THP-1 (LPS and ATP stimulation, ELISA). The experiment is classed as cell-based. The settings on record: Homo sapiens; PMA-differentiated THP-1 cells, LPS 50 ng/mL and ATP 5 mM, 2 hours. As to the method:
50 ng/mL of PMA (phorbol myristate acetate, SIGMA, P1585) was added to THP-1 cells, and the cells were cultured at 37° C. for 2 days. […] LPS (Lipopolysaccharide, SIMGA, L2880) and ATP (Adenosine triphosphate, SIGMA, A2383) were added to final concentrations of 50 ng/mL and 5 mM, respectively, and the cells were cultured at 37° C. for 2 hours. The supernatant was collected, and the concentration of IL-1β was measured by an ELISA method (DuoSet ELISA human IL-1β, R&D Systems, DY201). […] The IC50 value was calculated by sigmoid […] model non-linear regression analysis.

Experimental findings from patent US20230107277A1, “SUBSTITUTED PYRIDAZINE COMPOUND” (Astellas Pharma Inc., priority 2020, published 2023) are described below.

For `Cc1c(NC[C@@H](C)O)nnc(-c2ccc(C(F)(F)F)cc2O)c1C` [Example 9, 2-(6-{[(R2R)-2-hydroxypropyl]amino}-4,5-dimethylpyridazin-3-yl)-5-(trifluoromethyl)phenol], the “IL-1β p17 inhibition ratio to the solvent administration group” value in experiment [1] (Dose 0.3 mg/kg) stood at 37%; in experiment [1] (Dose 1 mg/kg), 70%; in experiment [1] (Dose 3 mg/kg) it was 89%. In addition, the midpoint of inhibition in experiment [2], the IC50, lay at 0.014 µM.
Regarding `Cc1c(NC[C@@H](C)O)nnc(-c2ccc(C(F)(F)F)cc2C(F)(F)F)c1C` [Example 4, (2R)-1-({6-[2,4-bis(trifluoromethyl)phenyl]-4,5-dimethylpyridazin-3-yl}amino)propan-2-ol], the entries for the “IL-1β p17 inhibition ratio to the solvent administration group” value in experiment [1] (Dose 3 mg/kg), in experiment [1] (Dose 10 mg/kg) and in experiment [1] (Dose 30 mg/kg) were 68%, 93% and 100%, respectively. The 50% inhibitory concentration (IC50) (as a rule, the concentration that gives 50% inhibition) in experiment [2] amounted to 0.21 µM.
Compound `Cc1c(NCC(C)(C)O)nnc(-c2ccc(C(F)(F)F)cc2O)c1C` [Example 68, 2-{6-[(2-hydroxy-2-methylpropyl)amino]-4,5-dimethylpyridazine-3-yl}-5-(trifluoromethyl)phenol] registered an IC50 in experiment [2] of 0.31 µM.
`Cc1c(NC[C@H](C)O)nnc(-c2ccc(C(F)(F)F)cc2C(F)(F)F)c1C` [Example 20] came in with an IC50 in experiment [2] of 1.5 µM.
With `CC(C)c1cc(-c2ccc(C(F)(F)F)cc2C(F)(F)F)nnc1NC[C@@H](C)O` [Example 24], the IC50 in experiment [2] worked out at 0.56 µM.
As for `C[C@@H](O)CNc1nnc(-c2ccc(C(F)(F)F)cc2C(F)(F)F)cc1-n1cccn1` [Example 13], the IC50 in experiment [2] was found to be 0.12 µM.
Same read-out and setting: the result for `OCCCNc1cc(-c2ccccc2)c(-c2ccc(C(F)(F)F)cc2C(F)(F)F)nn1` [Example 54] reads 3.5 µM.
`OCCCNc1cc(-c2ccccc2)c(-c2ccc(C(F)(F)F)cc2)nn1` [Example 1, 3-({5-phenyl-6-[4-(trifluoromethyl)phenyl]pyridazin-3-yl}amino)propan-1-ol] came in with an IC50 in experiment [2] of 0.98 µM.
On to `C[C@@H](O)CNc1nnc(-c2ccc(C(F)(F)F)cc2O)cc1N(C)C` [Example 35], for which half-maximal inhibition in experiment [2] (IC50) was put at 0.59 µM.
Still for that read-out and setting: the value for `C[C@@H](O)CNc1nnc(-c2ccc(C(F)(F)F)cc2C(F)(F)F)cc1C(=O)N1CCN(C)CC1` [Example 42, (6-[2,4-bis(trifluoromethyl)phenyl]-3-{[(2R)-2-hydroxypropyl]amino}pyridazine-4-yl)(4-methylpiperazin-1-yl)methanone] was 1.5 µM.
On to `Cc1cc(-c2ccc(C(F)(F)F)cc2O)nnc1NC[C@@H](C)O` [Example 8, 2-(6-{[(R2R)-2-hydroxypropyl]amino}-5-methylpyridazin-3-yl)-5-(trifluoromethyl)phenol], for which, in experiment [2], half-maximal inhibition (IC50) required 0.16 µM.
As for `COc1ccc(-c2nnc(NC[C@@H](C)O)cc2C)c(C2CC2)c1` [Example 60], the concentration for half-maximal inhibition (IC50) in experiment [2] was 1.7 µM.
